Measured values from patent publication US20250241901A1, “ACTIVATION OF MNRR1 / CHCHD2 AS A THERAPEUTIC TARGET FOR MITOCHONDRIA ASSOCIATED DISORDERS” (Wayne State University, priority 2024, published 2025).

Test system: MELAS cybrid cells
Assay: Oxygen consumption of MELAS cybrid cells (Seahorse)
Type: cell-based, human
Conditions: 10 μM, 48 h
Protocol: FIGS. 7A-7E: MNRR1 activation by tizoxanide enhances mtDNA biogenesis and mitophagy to shift heteroplasmy in MELAS cells. FIG. 7A: Oxygen consumption measured from MELAS cybrid cells treated with vehicle (DMSO) or tizoxanide (10 μM) for 48 h (n=4 biological replicates, error bars represent SE). FIG. 7B: Haelll restriction enzyme digestion of a PCR-amplified fragment of mtDNA harboring the m.3243A>G mutation from DW7 cells treated with vehicle (DMSO) or tizoxanide (10 μM) for 144 h. […] FIG. 7C: Genes identified using qPCR of MELAS cybrid cells stably overexpressing EV or MNRR1. FIG. 7D: MtDNA levels are shown relative to nuclear DNA (nDNA) (GAPDH) (n=5 biological replicates, error bars represent SE). […]
FIGS. 11A-11F: RBPJk and HIF2α compete for binding at the ORE in the MNRR1 promoter to regulate transcription. […] FIG. 11E: Oxygen consumption measured from Control or HIFα knockdown (KD) MELAS cybrid cells. […] FIG. 11F: Left, Oxygen consumption measured from MELAS cybrid cells treated with vehicle (DMSO) or PT2385 (10 μM), an inhibitor of HIF2α function, for 24 h. […]
Intact cellular oxygen consumption and measurement of ATP: Cellular oxygen consumption was measured with a Seahorse XFe24 Bioanalyzer (Agilent). Cells were plated at a concentration of 3.5×10^4 per well a day prior to treatment and basal oxygen consumption was measured 48 h after treatments, as described. […]

For `O=C(Nc1ncc([N+](=O)[O-])s1)c1ccccc1O` [tizoxanide, Tizoxanide], the oxygen consumption was “increased”.
